Laboratory results reported in publication PMC11091879, “Inhibitors of the Thioesterase Activity of Mycobacterium tuberculosis Pks13 Discovered Using DNA-Encoded Chemical Library Screening” (ACS Infectious Diseases, 2024).
pIC50: −log10 of the molar value. Converted amounts (≈) assume the structure as drawn. Read-outs that look alike come from different tables or passages of the source.

What was measured:
[1] = target: Pks13-TE (Mycobacterium tuberculosis, UniProt I6X8D2); test: biochemical; format: binding; conditions: for IC50: IC50 (uM)
Pks13-TE, sequence (I6X8D2 1451-1733 limits assumed): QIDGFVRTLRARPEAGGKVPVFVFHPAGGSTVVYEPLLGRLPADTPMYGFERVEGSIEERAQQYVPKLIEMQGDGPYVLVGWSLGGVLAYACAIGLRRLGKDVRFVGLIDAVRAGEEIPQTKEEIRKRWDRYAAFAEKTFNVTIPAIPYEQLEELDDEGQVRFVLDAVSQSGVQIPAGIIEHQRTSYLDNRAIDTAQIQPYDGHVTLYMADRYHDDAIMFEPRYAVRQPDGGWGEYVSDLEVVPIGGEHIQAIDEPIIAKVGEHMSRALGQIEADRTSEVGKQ

[2] = tested on: WT H37Rv; test: microbe, parasite or virus in culture; format: cell-based, Mycobacterium tuberculosis; conditions: for MIC: Mycobacterium tuberculosis, H37RV
[3] = tested on: pks13-TetON +ATc (Pks13-hypermorph); format: cell-based, Mycobacterium tuberculosis
[4] = tested on: pks13-TetON -ATc (hypomorph); format: cell-based, Mycobacterium tuberculosis

SMILES | MIC ([2]; read-out: WT H37Rv MIC (uM)) [µM] | IC50 [1] [µM] | Hypermorph MIC fold shift (+ATc/WT) [3] [fold] | Hypomorph MIC fold shift (WT/-ATc) [4] [fold] | pIC50 ([1]; read-out: IC50) | MIC ([2]; read-out: WT H37Rv MIC) [µM] | other results
CCC(C)(C)c1ccc(S(=O)(=O)N[C@@H](Cc2ccccc2)[C@@H](O)Cc2nc(N(C)C)no2)cc1 [X20348] | > 250 |  |  |  |  |  | pIC50 ([1]; enzyme potency / IC50): 6.33
Cc1cc(C(=O)NCc2ccccc2)nc(N2CCC(C(=O)N3CCN(C(=O)c4cnc5c(C)cccc5c4)CC3)CC2)n1 [X20377] | 0.21 (≈ 0.124 µg/mL) | 0.85 | 2.6 | 3.5 |  |  | MIC ([2]; read-out: MIC (Mtb inhibition)): 0.21 µM (≈ 0.124 µg/mL)
COc1ccc2[nH]c(C(=O)N3CCN(C(=O)C4CCN(c5nc(C)cc(C(=O)NCc6ccccc6)n5)CC4)CC3)cc2c1OC [X20419] | 0.044 (≈ 0.0275 µg/mL) | 0.48 | 2.5 | 1.8 |  |  | fold improvement in enzyme inhibition [1]: 30 fold; MIC ([2]; read-out: MIC (Mtb inhibition)): 0.04 µM (≈ 0.025 µg/mL)
Cc1cc(C(=O)NCc2ccccc2)nc(N2CCC(CN3CCN(C(=O)c4cnc5c(C)cccc5c4)CC3)CC2)n1 [X21352] | 5.2 (≈ 3 µg/mL) | 0.46 | 6.1 | 1.7 |  |  | 
Cc1cc(C(=O)NCc2ccccc2)nc(N2CCC(C(=O)N3CCN(C(=O)c4ccc5nc(C)sc5c4)CC3)CC2)n1 [X21408] |  |  | 5.4 | 1.5 | 6.34 |  | WT H37Rv MIC [2]: 0.10 µM
COc1ccn2nc(C(=O)N3CCN(C(=O)C4CCN(c5nc(C)cc(C(=O)NCc6ccccc6)n5)CC4)CC3)cc2c1 [X21411] | 0.21 (≈ 0.125 µg/mL) | 0.48 | 6.0 | 2.1 |  |  | 
Cc1cccc2cc(C(=O)N3CCN(C(=O)C4CCN(c5nccc(C(=O)NCc6ccccc6)n5)CC4)CC3)cnc12 [X21424] | 2.6 (≈ 1.5 µg/mL) | 0.39 | 5.8 | 3.0 |  |  | 
CNC(=O)c1cc(C(C)C)nc(N2CCC(C(=O)N3CCN(C(=O)c4ccc(-n5nc(C)cc5C)nc4)CC3)CC2)n1 [X21426] |  |  | 4.8 | 1.5 | 6.21 | 13 (≈ 7.46 µg/mL) | 
Cc1cc(C(=O)NCc2ccncc2)nc(N2CCC(C(=O)N3CCN(C(=O)c4cnc5c(C)cccc5c4)CC3)CC2)n1 [X21429] | 0.24 (≈ 0.142 µg/mL) | 0.42 | 3.9 | 2.3 |  |  | MIC ([2]; read-out: MIC (whole cell activity)): 0.24 µM (≈ 0.142 µg/mL)
COc1ccc(Cl)cc1-c1ccc(-c2cn(CCc3ccc(C(=O)N(C)C)cc3)nn2)cn1 [X21434] | 1.1 (≈ 0.508 µg/mL) | 0.46 | 5.4 | 2.4 |  |  | 
COc1ccc(OC)c(-c2ncc(-c3cn(CCc4ccc(C(=O)N(C)C)cc4)nn3)cn2)c1 [X21435] | > 125 | 0.58 |  |  |  |  | 
COc1ccc(Cl)c(-c2ccc(-c3cn(CCc4ccc(C(=O)N(C)C)cc4)nn3)cn2)c1 [X21464] | 5.5 (≈ 2.54 µg/mL) | 0.38 | 3.8 | 2.4 |  |  | 
COc1ccc(OC)c(-c2ccc(-c3nc(N(C)Cc4ccc(C(=O)N(C)C)cc4)no3)cn2)c1 [X21475] |  |  |  |  | < 4.70 |  | 
Cc1cccc(-c2ccc(-c3cn(CCc4ccc(C(=O)N(C)C)cc4)nn3)cn2)c1C [X21478] | 12 (≈ 5.11 µg/mL) | 0.47 | 17 | 1.9 |  |  | 
Cc1cccc2cc(-c3cn(CCc4ccc(C(=O)N(C)C)cc4)nn3)cnc12 [X21497] |  |  |  |  | < 5.00 |  | WT H37Rv MIC [2]: > 125 µM
COc1ccc(OC)c(-c2ccc(-c3cn(CCc4ccncc4)nn3)cn2)c1 [X21498] |  |  | 2.7 | 1.5 | 6.43 |  | WT H37Rv MIC [2]: 0.26 µM
COc1ccc(OC)c(-c2ncc(-c3cn(CCc4ccc(C(=O)N(C)C)cc4)nn3)cc2C)c1 [X21499] | 18 (≈ 8.49 µg/mL) | 0.58 |  | 1.6 |  |  | 
CN(C)C(=O)c1ccc(CCn2cc(-c3ccc(-c4ccccc4C(F)(F)F)nc3)nn2)cc1 [X21502] |  |  |  |  | 6.23 | > 125 | 
COc1ccc(OC)c(-c2ccc(-c3cn(CCc4ccc(-c5nccn5C)cc4)nn3)cn2)c1 [X21542] |  |  | 2.7 | 1.9 | 6.30 | 0.17 (≈ 0.0793 µg/mL) | 

SMILES | MIC ([2]; read-out: WT H37Rv MIC (uM)) [µM] | IC50 [1] [µM] | Hypermorph MIC fold shift (+ATc/WT) [3] [fold] | Hypomorph MIC fold shift (WT/-ATc) [4] [fold] | pIC50 ([1]; read-out: IC50) | MIC ([2]; read-out: WT H37Rv MIC) [µM] | other results
COc1ccc(OC)c(-c2ccc(-c3cn(CCc4ccc5c(cnn5C)c4)nn3)cn2)c1 [X21543] |  |  | 1.7 | 3.4 | 6.31 | 0.35 (≈ 0.154 µg/mL) | 
COc1ccc(OC)c(-c2ccc(-c3cn(CCc4ccc5nn(C)cc5c4)nn3)cn2)c1 [X21544] |  |  | 1.5 | 2.7 | 6.26 | 0.47 (≈ 0.207 µg/mL) | 
COc1ccc(OC)c(-c2ccc(-c3cn(CCc4ccc(S(=O)(=O)N(C)C)cc4)nn3)cn2)c1 [X21545] |  |  | 2.8 | 3.2 | 6.28 | 1.3 (≈ 0.642 µg/mL) | 
Cc1ccccc1-c1ncc(-c2cn(CCc3ccc(C(=O)N(C)C)cc3)nn2)s1 [X21546] | 18 (≈ 7.52 µg/mL) | 0.37 |  | 1.9 |  |  | 
COc1ccc(OC)c(-n2ncc(-c3cn(CCc4ccc(C(=O)N(C)C)cc4)nn3)c2C)c1 [X21558] |  |  |  |  | < 4.70 |  | 
Cc1c(-c2cn(CCc3ccc(C(=O)N(C)C)cc3)nn2)cnn1-c1ccccc1F [X21774] |  |  |  |  | < 5.00 | > 125 | 
COc1ccn2nc(C(=O)N3CCN(C(=O)C4CCN(c5nc(C)cc(C(=O)N6CCCC6)n5)CC4)CC3)cc2c1 [X22276] |  |  |  |  | < 5.00 | > 125 | 
COc1ccn2nc(C(=O)N3CCN(C(=O)C4CCN(c5nc(C)cc(C(F)(F)F)n5)CC4)CC3)cc2c1 [X22279] |  |  |  |  | < 5.00 | > 125 | 
CNC(=O)c1cc(C)nc(N2CCC(C(=O)N3CCCN(C(=O)c4cnn5ccc(OC)cc45)CC3)CC2)n1 [X22280] |  |  |  |  | < 5.00 | > 125 | 
COc1ccc(F)cc1-c1ccc(-c2cn(Cc3ccncc3)nn2)cn1 [X22307] |  |  |  |  | < 5.00 |  | WT H37Rv MIC [2]: > 125 µM
Cc1ccc(F)cc1-c1ccc(-c2cn(CCc3ccc4c(cnn4C)c3)nn2)cn1 [X22309] |  |  |  |  | 6.21 | > 125 | 
Cn1ncc2cc(CCn3cc(-c4ccc(-c5cc(C(F)(F)F)ccc5F)nc4)nn3)ccc21 [X22311] |  |  |  |  | 6.11 | > 125 | 
Cn1ncc2cc(CCn3cc(-c4ccc(N5CC(F)(F)C5)nc4)nn3)ccc21 [X22317] |  |  |  |  | < 5.00 | > 125 | 
Cn1ncc2cc(CCn3cc(-c4ccc(OCc5ccccc5)nc4)nn3)ccc21 [X22346] |  |  |  |  | < 5.00 |  | WT H37Rv MIC [2]: > 125 µM
COc1ccc(OC)c(-c2ccc(-n3cc(C4CN(c5ccc(C(=O)N(C)C)cc5)C4)nn3)cn2)c1 [X23436] |  |  |  |  | 6.43 |  | 
COc1ccc(OC)c(-c2ccc(-c3cn(C4CN(c5ccc6nn(C)cc6c5)C4)nn3)cn2)c1 [X23479] |  |  |  |  | 6.34 |  | 
COc1ccc(F)cc1-c1ccc(-c2cn(C3CN(c4ccc(C(=O)N(C)C)cc4)C3)nn2)cn1 [X23488] |  |  |  |  | 6.21 |  | 
COc1ccc(OC)c(-c2ccc(-c3cn(C4CCN(c5ccc(C(=O)N(C)C)cc5)C4)nn3)cn2)c1 (stereo not shown) [X23546] |  |  |  |  | 6.19 |  | 
